Test results as given in PMC11882969 (Nature Communications, 2025).
“And” between values parts separate entries of the source, which are not always exact repeats. Identical values can stand only once.

Assays:
[1] = target: T1, hCB2 (Homo sapiens, UniProt P34972); assay: TRUPATH BRET2 GoA dissociation, HEK293T; format: cell-based; parameters: expressed in transfected cells; host or cells: HEK293T cells (ATCC: CRL-3216), transient co-transfection; conditions: Log[drug], replicate columns
[2] = target: T2, hCB1 (Homo sapiens, UniProt P21554); assay: Tango β-arrestin-2 recruitment, HTLA cells, CB1R; format: cell-based; parameters: expressed in transfected cells; host or cells: HTLA cells (gift of R. Axel), transient transfection; conditions: Log[drug]
[3] = target: T2, hCB1; assay: DiscoverX PathHunter β-arrestin-2 recruitment; format: cell-based; conditions: individual replicates;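 further: CHO-K1 cells expressing hCB1, agonist mode, compound exposure with 1% vehicle, chemiluminescence read-out of the β-arrestin-2 recruitment signal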
[4] = target: CB1 (rCB1) (Rattus norvegicus, UniProt P20272); assay: Radioligand competition binding, [3H]-CP-55,940, rat brain membranes; conditions: rCB1
[5] = target: T1, hCB2; assay: Cerep HTRF cAMP inhibition assay, hCB2 CHO-K1; format: cell-based; parameters: host or cells: HEK293SL cells, transient PEI transfection; conditions: for functional response, concentration-response point (FigS7d): replicate columns;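 on all read-outs here: compounds incubated 30 min at 37 °C with hCB2 CHO-K1 cells, cAMP detected by HTRF, HBSS as basal and reference agonist as stimulated control, run in triplicate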
Experimental: (§1) The hCB1/2 CHO-K1 cells (ATCC: CCL-61) are suspended in HBSS buffer (Invitrogen) complemented with 20 mM HEPES (pH 7.4), then distributed in microplates at a density of 5.103 cells/well in the presence of either of the following: HBSS (basal control), the reference agonist (stimulated control) or the test compounds. […] Following 30 min incubation at 37 °C, the cells are lysed, and the fluorescence acceptor (D2-labeled cAMP) and fluorescence donor (anti-cAMP antibody labeled with europium cryptate) are added. […] Each measurement was done in triplicate.

[6] = target: T1, hCB2; assay: Tango β-arrestin-2 recruitment, HTLA cells, CB2R; format: cell-based; parameters: expressed in transfected cells; host or cells: HEK293 cells stably expressing human CB2R (Laboratory of Ken Mackie); conditions: hCB2
Experimental: The Tango β-arrestin-2 recruitment assays were performed as described[83]. In brief, HTLA cells (a gift from the laboratory of R. Axel) were transiently transfected with human CB1R or CB2R Tango DNA construct overnight in DMEM supplemented with 10 % FBS, 100 µg ml−1 streptomycin and 100 U ml−1 penicillin. The transfected cells were then plated into poly-L-lysine-coated 384-well white clear-bottom cell culture plates in DMEM containing 1% dialysed FBS at a density of 10,000–15,000 cells per well. After incubation for 6 h, the plates were added with drug solutions prepared in DMEM containing 1% dialysed FBS for overnight incubation. On the day of assay, medium and drug solutions were removed and 20 µl per well of BrightGlo reagent (Promega) was added. The plates were further incubated for 20 min at room temperature and counted using the Wallac TriLux Microbeta counter (PerkinElmer). The results were analysed using GraphPad Prism 9. Each experiment was performed in triplicate and functional IC50 values were determined from the mean of three independent experiments.

[7] = target: T2, hCB1; assay: Cerep HTRF cAMP inhibition assay, hCB1 CHO-K1; format: cell-based; parameters: host or cells: HEK293SL cells, transient PEI transfection
Experimental: as §1

T1 sequence (P34972 whole entry): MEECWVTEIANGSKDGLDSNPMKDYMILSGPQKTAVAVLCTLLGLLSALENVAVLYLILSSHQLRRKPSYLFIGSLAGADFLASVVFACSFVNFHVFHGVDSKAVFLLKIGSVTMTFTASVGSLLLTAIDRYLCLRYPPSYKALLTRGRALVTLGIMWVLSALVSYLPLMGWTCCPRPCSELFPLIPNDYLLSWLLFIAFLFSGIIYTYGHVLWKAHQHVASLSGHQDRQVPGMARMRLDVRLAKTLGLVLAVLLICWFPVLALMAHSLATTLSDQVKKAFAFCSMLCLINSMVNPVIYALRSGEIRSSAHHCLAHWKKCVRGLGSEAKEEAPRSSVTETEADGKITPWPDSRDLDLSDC
T2 sequence (P21554 whole entry): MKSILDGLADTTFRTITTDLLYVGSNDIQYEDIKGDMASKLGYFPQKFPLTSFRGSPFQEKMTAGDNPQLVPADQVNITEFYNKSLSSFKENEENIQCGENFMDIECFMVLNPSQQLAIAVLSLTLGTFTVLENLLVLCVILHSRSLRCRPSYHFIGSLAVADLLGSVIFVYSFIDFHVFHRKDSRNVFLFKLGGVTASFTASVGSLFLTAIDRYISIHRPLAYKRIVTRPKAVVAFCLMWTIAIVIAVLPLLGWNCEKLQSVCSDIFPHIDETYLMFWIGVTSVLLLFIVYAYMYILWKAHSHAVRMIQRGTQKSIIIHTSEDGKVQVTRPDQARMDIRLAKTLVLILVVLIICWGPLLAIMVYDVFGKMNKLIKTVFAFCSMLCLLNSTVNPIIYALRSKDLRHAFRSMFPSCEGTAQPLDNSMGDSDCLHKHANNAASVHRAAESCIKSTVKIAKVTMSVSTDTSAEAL
Sequence of CB1 (rCB1) (P20272 whole entry): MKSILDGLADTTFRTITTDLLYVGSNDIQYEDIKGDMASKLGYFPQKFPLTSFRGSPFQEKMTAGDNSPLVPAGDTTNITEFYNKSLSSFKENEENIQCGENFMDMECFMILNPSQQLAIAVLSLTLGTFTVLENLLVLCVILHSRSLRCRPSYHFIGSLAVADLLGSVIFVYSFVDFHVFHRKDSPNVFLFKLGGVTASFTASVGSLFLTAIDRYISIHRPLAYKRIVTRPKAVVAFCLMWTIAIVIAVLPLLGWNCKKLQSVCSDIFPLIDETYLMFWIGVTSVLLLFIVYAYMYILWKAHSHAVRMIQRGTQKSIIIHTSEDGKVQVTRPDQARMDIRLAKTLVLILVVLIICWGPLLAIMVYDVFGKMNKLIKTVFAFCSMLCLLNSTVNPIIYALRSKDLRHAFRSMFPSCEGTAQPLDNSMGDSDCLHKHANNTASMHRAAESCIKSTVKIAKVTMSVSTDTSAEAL

Cc1cc(C(=O)N2CC3(CCC3)C2C2CCCO2)nn1-c1cccc(C(F)(F)F)c1 (centres unmarked) [‘3737]
functional response, concentration-response point (FigS7e, normalized) ([1]; M = -5): 7.15 and 0.08499 and 7.219 and 7.788 and 7.891 and 6.738 and 8.045 and 7.095 and 12.8638 and 12.2484 and 11.5588 and 11.0027
functional response, concentration-response point (FigS7e, normalized) ([1]; M = -5.52): 5.302 and 6.612 and 7.12 and 7.029 and 6.875 and 5.885 and 5.894 and 6.474 and 7.41 and 9.531 and 8.971 and 8.263
functional response, concentration-response point (FigS7e, normalized) ([1]; M = -6): 1.28 and 2.3503 and 2.331 and 3.337 and 2.385 and 1.616 and 1.676 and 1.052 and 3.161 and 3.087 and 4.085 and 2.086
functional response, concentration-response point (FigS7e, normalized) ([1]; M = -6.52): 0.8173 and 0.5745 and 0.009098 and 0.9653 and 0.9374 and 0.7056 and 0.8258 and 0.7943 and 1.033 and 1.163 and 0.8851 and 1.056
functional response, concentration-response point (FigS7e, normalized) ([1]; M = -7): 0.2747 and 0.06981 and 0.08878 and 0.8059 and -0.06126 and 0.2392 and 0.2936 and 0.4538 and 0.7999 and 0.4069 and 0.5552 and 0.6998
functional response, concentration-response point (FigS7e, normalized) ([1]; M = -7.52): 0.1912 and 0.08499 and -0.09335 and 0.658 and 0.6598 and 0.9202 and 0.07323 and 0.6226 and 0.2957 and 0.8814 and 0.5663 and 0.5329
functional response, concentration-response point (FigS7e, normalized) ([1]; M = -8): 0.324 and -0.4159 and -0.002285 and 0.1419 and 0.1305 and 0.7285 and 0.8 and 0.368 and 0.355 and 0.3476 and 0.5886 and 0.8221
functional response, concentration-response point (FigS7e, normalized) ([1]; M = -8.52): -0.4237 and 0.0337 and -0.52 and -0.4863 and 0.2451 and -0.1507 and 1.084 and 0.6009 and 0.6985 and 0.3222 and -0.007056 and 0.3034
functional response, concentration-response point (FigS7e, normalized) ([1]; M = -12): 0.3611 and 0.2552 and -0.6451 and 0.02889
response, replicate values of concentration-response curve (FigS7f) ([2]; M = -4.52): 16.1787 and -30.1888 and -21.8736 and -37.3037 and -30.7086 and -43.6201 and -17.4903 and -7.002 and -28.2206 and 69.1202 and 86.7632
response, replicate values of concentration-response curve (FigS7f) ([2]; M = -5): 10.5 and 4.251 and -11.4922 and -24.0074 and 39.1171 and 4.908 and -25.6442 and 7.194 and 4.112 and 35.3652 and 54.7761
response at Log[drug], M -5 (FigS4e) ([2]; M = -5, individual replicates): 1.604 and 1.6378 and -0.1263 and 3.554 and -1.645 and -3.332 and -3.586 and -3.254 and -1.133 and -2.551 and -0.4401 and -2.2823
response, replicate values of concentration-response curve (FigS7f) ([2]; M = -5.52): -34.1436 and -19.4525 and -21.2651 and -33.8536 and -16.1649 and -20.5572 and -2.476 and -19.5818 and -27.1597 and -5.334 and 9.411
response at Log[drug], M -5.52 (FigS4e) ([2]; M = -5.52, individual replicates): 3.364 and 3.2967 and 3.89 and 5.267 and -2.445 and -3.368 and -3.286 and -3.18 and -0.5298 and -0.4645 and -2.331 and -1.157
response, replicate values of concentration-response curve (FigS7f) ([2]; M = -6): 47.6523 and 12.1859 and 4.34 and -19.6283 and -3.001 and -0.2146 and 2.4245 and 18.2472 and 13.6095 and 40.7237 and 38.7735
response at Log[drug], M -6 (FigS4e) ([2]; M = -6, individual replicates): 5.688 and 6.311 and 5.608 and 6.012 and -1.436 and -3.213 and -2.355 and -0.1315 and -0.6439 and -0.4319 and -1.117 and -0.5542
response, replicate values of concentration-response curve (FigS7f) ([2]; M = -6.52): 26.7755 and 17.066 and 0.4863 and -24.0472 and -30.3238 and -3.24 and 14.0743 and -8.114 and 32.4836 and -15.0304 and -19.0948
response at Log[drug], M -6.52 (FigS4e) ([2]; M = -6.52, individual replicates): 5.756 and 5.2335 and 6.796 and 5.427 and -1.042 and -1.74 and -1.178 and 0.9023 and 2.299 and 1.818 and -0.3423 and 0.155
response, replicate values of concentration-response curve (FigS7f) ([2]; M = -7): 34.9133 and -3.95 and -16.1188 and -35.3 and 25.4625 and -10.8968 and -21.6834 and 6.2943 and 0.9695 and -12.3146 and 7.534
response at Log[drug], M -7 (FigS4e) ([2]; M = -7, individual replicates): 8.884 and 5.924 and 8.758 and 7.292 and -0.04536 and -0.9069 and -0.4556 and -0.1931 and 0.8804 and 2.804 and 1.011 and 0.1957
response, replicate values of concentration-response curve (FigS7f) ([2]; M = -7.52): -5.053 and -15.3203 and -3.0249 and -6.279 and -50.5337 and -10.2997 and -15.5807 and -8.983 and -20.2588 and 4.854 and 34.2352
response at Log[drug], M -7.52 (FigS4e) ([2]; M = -7.52, individual replicates): 9.415 and 8.198 and 9.343 and 6.627 and -1.362 and -1.444 and -1.617 and 0.25 and 3.66 and 1.117 and 0.375 and 3.994
response at Log[drug], M -8 (FigS4e) ([2]; M = -8, individual replicates): 8.737 and 7.057 and 9.276 and 8.661 and -0.8249 and 2.133 and -0.7879 and -0.8084 and 1.019 and 1.329 and 1.361 and 1.467
response at Log[drug], M -8.52 (FigS4e) ([2]; M = -8.52, individual replicates): 12.5705 and 14.1572 and 15.386 and 12.0363 and 0.2264 and -0.5023 and 0.2681 and 0.2421 and 3.757 and 10.0248 and 2.888 and 3.985
response, replicate values of concentration-response curve (FigS7f) ([2]; M = -9): 8.713
response at Log[drug], M -9 (FigS4e) ([2]; M = -9, individual replicates): 14.7823 and 12.9338 and 10.7167 and 15.0494 and -0.7053 and 1.382 and -0.9032 and 2.064 and 3.902 and 4.367 and 2.588 and 2.216
response, replicate values of concentration-response curve (FigS7f) ([2]; M = -9.52): -15.5865 and 2.109 and -19.0089 and -14.201 and 8.65 and -30.6423 and 15.2767 and -7.75 and 4.87 and -25.5104 and 1.592
response at Log[drug], M -9.52 (FigS4e) ([2]; M = -9.52, individual replicates): 13.1261 and 12.6453 and 12.7896 and 11.1868 and 3.428 and 1.32 and 2.251 and 2.397 and 2.423 and 1.937 and 2.288 and 2.144
response, replicate values of concentration-response curve (FigS7f) ([2]; M = -10): -11.9485 and -4.635 and -5.484 and 10.0562 and 9.379 and -4.05 and 21.9756 and 8.952 and 10.1035 and -36.3186 and 8.518
response at Log[drug], M -10 (FigS4e) ([2]; M = -10, individual replicates): 11.8653 and 11.8119 and 13.3986 and 14.0664 and 1.366 and 1.523 and 1.018 and -1.502 and 5.629 and 3.467 and 5.091 and 7.656
response at Log[drug], M -10.52 (FigS4e) ([2]; M = -10.52, individual replicates): 14.5419 and 16.8873 and 18.068 and 18.8961 and 0.7314 and -0.5544 and 7.931 and 2.309 and 2.226 and 3.798 and 2.154 and 1.523
response at Log[drug], M -11 (FigS4e) ([2]; M = -11, individual replicates): 12.4743 and 12.4476 and 8.323 and 8.772 and 2.428 and 1.528 and 2.267 and 2.496 and 5.774 and 4.76 and 2.712 and 3.85
response at Log[drug], M -11.52 (FigS4e) ([2]; M = -11.52, individual replicates): 6.5336 and 8.19 and 7.298 and 6.6351 and 3.735 and 0.95 and 2.715 and 0.09109 and 2.743 and 1.926 and 0.799 and -0.6593
response at Log[drug], M -12 (FigS4e) ([2]; M = -12, individual replicates): -0.6945 and 1.426 and -1.629 and 0.8975 and 0.8147 and 0.1796 and -0.8095 and -0.1848 and 0.03361 and 0.3025 and -0.05947 and -0.2767
response at log[M] -5 (FigS4f) ([3]; log[M] = -5): 2.937 and 3.369
response at log[M] -5.47712 (FigS4f) ([3]; log[M] = -5.47712): 2.132 and 1.959
response at log[M] -5.95424 (FigS4f) ([3]; log[M] = -5.95424): 0.8089 and 2.3908
response at log[M] -6.43136 (FigS4f) ([3]; log[M] = -6.43136): 0.2049 and 1.2691
response at log[M] -6.90849 (FigS4f) ([3]; log[M] = -6.90849): -0.5141 and 0.32
response at log[M] -7.38561 (FigS4f) ([3]; log[M] = -7.38561): 0.003595 and 0.06112
response at log[M] -7.86273 (FigS4f) ([3]; log[M] = -7.86273): 0.32 and 0.4063
response at log[M] -8.33985 (FigS4f) ([3]; log[M] = -8.33985): 0.003595 and -0.3703
response at log[M] -8.81697 (FigS4f) ([3]; log[M] = -8.81697): 0.2049 and 0.8664
response at log[M] -9.29409 (FigS4f) ([3]; log[M] = -9.29409): -0.4278 and -0.5141
pKi [95% CI] [4]: 6.76 [6.5 – 7.03]
Emax ([5]; CHO-K1, hCB2): 45%
functional response, concentration-response point (FigS7d) ([5]; Concentration [M] 1e-12): -30 and 18.5 and 4.6
functional response, concentration-response point (FigS7d) ([5]; Concentration [M] 1e-11): 15.9 and 16.3 and 22.7
functional response, concentration-response point (FigS7d) ([5]; Concentration [M] 1e-10): 3.3 and 8.5 and 15.6
functional response, concentration-response point (FigS7d) ([5]; Concentration [M] 1e-9): 40.4 and -11.1 and 23.4
functional response, concentration-response point (FigS7d) ([5]; Concentration [M] 1e-8): 41.2 and 37.3 and 34.7
functional response, concentration-response point (FigS7d) ([5]; Concentration [M] 1e-7): 47.6 and 60.7 and 69.2
functional response, concentration-response point (FigS7d) ([5]; Concentration [M] 1e-6): 52.3 and 67.9 and 43.7
functional response, concentration-response point (FigS7d) ([5]; Concentration [M] 1e-5): 46.2 and 40.4 and 47.6
Cerep cAMP pEC50 ([5]; hCB2): 8.4 [7.7 – 12.5]
EC50 ([5]; hCB2): 4.3 nM
Emax ([6]; HTLA, read-out: Tango ß-arrestin recruitment Emax): 9%
Tango ß-arrestin recruitment pEC50 [6]: 5.8 [5.7 – 5.9]
EC50 ([6]; read-out: Tango ß-arrestin recruitment EC50): 1500 nM
Emax ([7]; CHO-K1): 99%
Cerep cAMP pEC50 ([7]; hCB1): 6.5 [6.0 – 6.8]
EC50 ([7]; hCB1): 326 nM
